Where a name gives a salt, the structure may show the parent alone.
Assays:
Blood-free fatty acids = test: Experiment I: blood free fatty acid after oral administration to fasted rats; assay type: in vivo, rat; settings: 1 mmol/kg, mean
Description: (§1) Test compounds are administered orally to groups of 5 rats (body weight: about 290 g) which fasted overnight. Blood samples were collected from the tail vein at intervals. Blood free fatty acid, serum-triglyceride and serum-cholesterol were determined, respectively.

Serum triglyceride = test: Experiment I: serum-triglyceride after oral administration to fasted rats; assay type: in vivo, rat; settings: 1 mmol/kg, rats about 290 g, mean
Description: as §1

Serum-cholesterol = test: Experiment I: serum-cholesterol after oral administration to fasted rats; assay type: in vivo, rat; settings: 1 mmol/kg, mean
Description: as §1

Serum-triglyceride = test: Experiment II: serum-triglyceride after oral administration to fasted rats; assay type: in vivo, rat; settings: 1 mmol/kg, rats about 170 g, mean ± standard error
Description: Test compounds were administered orally to groups of 5 rats (body weight: about 170 g) which fasted overnight. Blood samples were collected from the tail vain at intervals, and serum-triglyceride was determined.

[1] = Experiment III: acute toxicity, oral, ddY male mice (Van der Waerden's Method); settings: mouse, in vivo, ddY-strain male mice
Description: (§2) Test compounds were administered orally to ddY male mice or SD-strain male rats. Seventy-two hours after the administration, 50% lethal dose of the test compounds were estimated in accordance with Van der Waerden's Method.

[2] = Experiment III: acute toxicity, oral, SD-strain male rats (Van der Waerden's Method); settings: rat, in vivo
Description: as §2

[3] = use as hypolipidemic agent; known; cited from earlier work
[4] = tested on: cholesterol and triglyceride levels in plasma; settings: literature; cited from earlier work
[5] = 0 hrs after oral administration
[6] = 2 hrs after oral administration
[7] = 6 hrs after oral administration
[8] = 10 hrs after oral administration
[9] = 12 hrs after oral administration

Row | SMILES | Blood-free fatty acids (Blood-free fatty acids; [5]) [μ moles/dl] | Blood-free fatty acids (Blood-free fatty acids; [6]) [μ moles/dl] | Blood-free fatty acids (Blood-free fatty acids; [7]) [μ moles/dl] | Blood-free fatty acids (Blood-free fatty acids; [8]) [μ moles/dl] | Serum triglyceride (Serum triglyceride; [7]) [mg/dL] | Serum triglyceride (Serum triglyceride; [8]) [mg/dL] | Serum-cholesterol (Serum-cholesterol; [7]) [mg/dL] | Serum-cholesterol (Serum-cholesterol; [8]) [mg/dL] | Serum-triglyceride (Serum-triglyceride; [7]) [mg/dL] | Serum-triglyceride (Serum-triglyceride; [9]) [mg/dL] | LD50 at 72 h [1] [mg/kg] | LD50 at 72 h [2] [mg/kg] | side effects [3] | cholesterol and triglyceride levels in plasma [4]
1 | CCOC(=O)CC(C[N+](C)(C)C)OC(=O)c1cccnc1 (stereo not shown) [A, Nicotinoyl carnitine ethyl ester nitrate . HNO3] | 52 | 27 | 29 | 65 | 12 | 16 | 55 | 50 | – | – | – | – | – | –
2 | CCOC(=O)CC(C[N+](C)(C)C)OC(=O)c1cccnc1 (stereo not shown) [B, Nicotinoyl carnitine ethyl ester chloride. H2 O] | – | – | – | – | – | – | – | – | 13 ± 5 | 13 ± 4 | 5900 | 6900 | – | –
3 | C[N+](C)(C)CC(CC(=O)OCc1ccccc1)OC(=O)c1cccnc1 (stereo not shown) [C, Nicotinoyl carnitine benzyl ester chloride] | – | – | – | – | – | – | – | – | 10 ± 1 | 23 ± 3 | – | – | – | –
4 | C[N+](C)(C)CC(CC(N)=O)OC(=O)c1cccnc1 (stereo not shown) [D, Nicotinoyl carnitine amide chloride . HCl] | – | – | – | – | – | – | – | – | – | – | > 7200 | > 7000 | – | –
5 | O=C(O)c1cccnc1 [Nicotinic acid, nicotinic acid, reference compound] | 38 | 22 | 60 | 66 | 22 | 27 | 74 | 70 | 28 ± 7 | 34 ± 5 | – | – | undesirable side effects such as facial skin flush and itching | can be decreased

— US4032641A, “Nicotinoyl carnitine derivatives” (Tanabe Seiyaku Co., Ltd., priority 1976, dated 1977)
